Experimental data published in patent US10920190B2, “Folding biological tissue via programmed cellular contractility” (The Regents of the University of California, priority 2016, dated 2021).

How the values were obtained:
[1] = test system: Chick skin explants; assay: Feather bud formation in chick skin explants in culture; design: species or system chickens; conditions: chick skin explants at Hamburger-Hamilton (HH) stage 32 in culture
Experimental: (§1) Blebbistatin (Abcam ab120491) and staurosporine (Sigma-Aldrich S5921) were added to cell media at the indicated concentrations by serial dilution from 10 mM DMSO stocks.
(§2) FIG. 21. (A). Gut villi in embryonic mice form in concert with condensation of PDGFR-positive mesenchymal fibroblasts at sites of villus curvature. These clusters are associated with local alignment and compaction of collagen 1 fibrils against the E-cadherin-positive epithelium. […] B) Feather buds in embryonic chickens form from a flat epithelium, and can be visualized with non-specific ethidium bromide staining Chick skin explants at Hamburger-Hamilton (HH) stage 32 form feather buds in culture, but feather bud spacing and height are disrupted in the presence of blebbistatin.

[2] = test system: explanted guts; assay: Cell clustering and collagen 1 remodeling in explanted embryonic guts; conditions: explanted guts of embryonic mice treated with inhibitor; results not shown
Experimental: as §1, §2

[3] = test system: mesenchymal-like carcinoma cells; assay: Unfolding of pre-folded isotropic reconstituted tissues after ablating actuator cells; format: cell-based
Experimental: as §1
Curvatures reported for cap reconstituted tissues were generated by radially reslicing and thresholding in ImageJ after manually picking the center of reconstituted tissues to serve as origin points. Radial slices were read into MATLAB and least-squares fitted to circles. Anisotropic curvatures were similarly generated for the indicated cutting planes and folds.

[4] = test system: mesenchymal-like carcinoma cells; assay: Efficacy of staurosporine on cells cultured on standard tissue culture plastic (cell viability); format: cell-based; conditions: 20 μM, n=6
Experimental: as §1

Row | Compound | feather bud spacing and height [1] | cell clustering and collagen 1 remodeling [2] | pre-folded isotropic tissue curvatures (maximum curvature relative to average maximum curvature prior to addition) ([3]; 20 μM, n=4 reconstituted tissues per condition) | unfolding of pre-folded tissues ([3]; upon inducing apoptosis of condensing cells using staurosporine (FIG. 13)) | cell death (cell viability) [4]
1 | Cc1ccc2c(c1)C(=O)C1(O)CCN(c3ccccc3)C1=N2 (centres unmarked) [blebbistatin] | disrupted | does not occur | – | – | –
2 | CN[C@@H]1C[C@H]2O[C@@](C)([C@@H]1OC)n1c3ccccc3c3c4c(c5c6ccccc6n2c5c31)C(=O)NC4 [staurosporine] | – | – | modest reductions | less than 40% | nearly complete cell death
